This note sets out measurements from US4071627A, “2-Oximino-tetrahydro-1,4-thiazin-5-one compounds and pesticidal carbamate derivatives” (priority 1976, dated 1978).

SMILES strings stand for the structures.

Holding throughout (assay type): in vivo
Common to all, as to set-up: key: A: excellent control; B: partial control; C: no control

In assay [1] the test system is bean aphid (Aphis fabae Scop.). Briefly: Bean Aphid Foliage Spray Test. To be noted: 500 ppm, 24 hours, adults and nymphs. Here is the method: (§1) Suspensions of the test compounds were prepared by dissolving one gram of compound in 50 milliliters of acetone in which had been dissolved 0.1 gram (10 percent of the weight of compound) of an alkylphenoxy polyethoxyethanol surfactant, as an emulsifying or dispersing agent. The resulting solution was mixed into 150 milliliters of water to give roughly 200 milliliters of a suspension containing the compound in finely divided form. The thus-prepared stock suspension contained 0.5 percent by weight of test compound. The test concentrations in parts per million by weight employed in the tests described hereinbelow were obtained by appropriate dilutions of the stock suspension with water. The test procedures were as follows:
Adults and nymphal stages of the bean aphid (Aphis fabae Scop.) reared on potted dwarf nasturtium plants at 65°-70° F. and 50-70 percent relative humidity, constituted the test insects. For testing purposes, the number of aphids per pot was standardized to 100-150 by trimming plants containing excess aphids.
The test compounds were formulated by diluting the stock suspension with water to give a suspension containing 500 parts of test compound per million parts of final formulation.
The potted plants (one pot per compound tested) infested with 100-150 aphids, were placed on a revolving turntable and sprayed with 100-110 milliliters of test compound formulated by use of a DeVilbiss spray gun set at 40 psig. air pressure. This application, which lasted 25 seconds, was sufficient to wet the plants to run-off. As a control, 100-110 milliliters of a water-acetone-emulsifier solution containing no test compound were also sprayed on infested plants. After spraying, the pots were placed on their sides on a sheet of white standard mimeograph paper which had been previously ruled to facilitate counting. Temperature and humidity in the test room during the 24 hour holding period were 65°-70° F. and 50-70 percent, respectively. Aphids which fell onto the paper and were unable to remain standing after being uprighted were considered dead. Aphids remaining on the plants were observed closely for movement and those which were unable to move the length of the body upon stimulation by prodding were considered dead. Percent mortality was recorded for various concentration levels.
(§2) In these tests the pesticidal activity of the compounds against aphid, mite, Southern Armyworm, Mexican Bean Beetle, and house fly was rated as follows: […]

The subject of assay [2] is two-spotted mite (Tetranychus urticae Koch). In words: Mite Foliage Spray Test. To be noted: 500 ppm, six days, adults and nymphs. As for the experimental part: as §1
Adults and nymphal stages of the two-spotted mite (Tetranychus urticae Koch), reared on Tengergreen bean plants at 80±5 percent relative humidity, were the test organisms. Infested leaves from a stock culture were placed on the primary leaves of two bean plants 6 to 8 inches in height, growing in a 21/2 inch clay pot. 150-200 Mites, a sufficient number for testing, transferred from the excised leaves to the fresh plants in a period of 24 hours. Following the 24 hour transfer period, the excised leaves were removed from the infested plants. The test compounds were formulated by diluting the stock suspension with water to give a suspension containing 500 parts of test compound per million parts of final formulation. The potted plants (one pot per compound) were placed on a revolving turntable and sprayed with 100-110 milliliters of test compound formulation by use of a DeVilbiss spray gun set at 40 psig. air pressure. This application, which lasted 25 seconds, was sufficient to wet the plants to run-off. As a control, 100-110 milliliters of a water solution containing acetone and emulsifier in the same concentrations as the test compound formulation, but containing no test compound, were also sprayed on infested plants. The sprayed plants were held at 80±5 percent relative humidity for six days, after which a mortality count of motile forms was made. Microscopic examination for motile forms was made on the leaves of the test plants. Any individual which was capable of locomotion upon prodding was considering living.
as §2

Assay [3] deals with southern armyworm (Prodenia eridania, (Cram.)). In words: Southern Armyworm Leaf Spray Test. The settings on record: 500 ppm, three days, larvae. Here is the method: as §1
Larvae of the southern armyworm (Prodenia eridania, (Cram.)), reared on Tendergreen bean plants at a temperature of 80°±5° F. and a relative humidity of 50±5 percent, constituted the test insects.
The test compounds were formulated by diluting the stock suspension with water to give a suspension containing 500 parts of test compound per million parts of final formulation. Potted Tendergreen bean plants of standard height and age were placed on a revolving turntable and sprayed with 100-110 milliliters of test compound formulation by use of a DeVilbiss spray gun set at 10 psig air pressure. This application, which lasted 25 seconds, was sufficient to wet plants to run-off. As a control, 100-110 milliliters of a water-acetone-emulsifier solution containing no test compound were also sprayed on infested plants. When dry, the paired leaves were separated and each one was placed in a 9 centimeter Petri dish lined with moistened filter paper. Five randomly selected larvae were introduced into each dish and the dishes were closed. The closed dishes were labeled and held at 80°-85° F. for three days. Although the larvae cound easily consume the whole leaf within 24 hours, no more food was added. Larvae which were unable to move the length of the body, even upon stimulation by prodding, were considered dead. Percent mortality was […] for various concentration levels.
as §2

In assay [4] the test system is Mexican bean beetle (Epilachna varivestis, Muls.). In words: Mexican Bean Beetle Leaf Spray Test. To be noted: 500 ppm, three days, fourth instar larvae. Here is the method: as §1
Fourth instar larvae of the Mexican bean beetle (Epilachna varivestis, Muls.), reared on Tendergreen bean plants at a temperature of 80°±5° F. and 50±5 percent relative humidity, were the test insects.
The test compounds were formulated by diluting the stock suspension with water to give a suspension containing 500 parts of test compound per million parts of final formation. Potted Tendergreen bean plants of standard height and age were placed on a revolving turntable and sprayed with 100-110 milliliters of test compound formulated by use of a DeVilbiss spray gun set at 10 psig air pressure. This application, which lasted 25 seconds, was sufficient to wet plants to run-off. As a control, 100-110 milliliters of a water-acetone-emulsifier solution containing no test compound were also sprayed on infested plants. When dry, the paired leaves were separated and each was placed in a 9 centimeter Petri dish lined with moistened filter paper. Five randomly selected larvae were introduced into each dish, and the dishes were closed. The closed dishes were labeled and held at a temperature of 80°±5° F. for three days. Although the larvae could easily consume the leaf within 24 to 48 hours, no more food was added. Larvae which were unable to move the length of the body, even upon stimulation, were considered dead.
as §2

The subject of assay [5] is house flies (Musca domestica, L.). In words: Fly Bait Test. To be noted: 500 ppm, 24 hours, adults. Here is the method: as §1
Four to six day old adult house flies (Musca domestica, L.), reared according to the specifications of the Chemical Specialities Manufacturing Association (Blue Book, McNair-Dorland Co., N.Y. 1954; pages 243-244, 261) under controlled conditions of 80°±5° F. and 50±5 percent relative humidity, were the test insects. The flies were immobilized by anesthetizing with carbon dioxide and 25 immobilized individuals, males and females, were transferred to a cage consisting of a standard food strainer about 5 inches in diameter which was inverted over a wrapping-paper-covered surface. The test compounds were formulated by diluting the stock suspension with a 10 percent (by weight) sugar solution to give a suspension containing 500 parts of test compound per million parts of final formulation, by weight. Ten milliliters of the test formulation were added to a souffle cup containing a 1-inch square of an absorbent cotton pad. This bait cup was introduced and centered on the blotting paper under the food strainer prior to admitting the anesthetized flies. The caged flies were allowed to feed on the bait for 24 hours, at a temperature of 80°±5° F. and the relative humidity of 50±5 percent.
as §2

On to `CN1C(=O)CSC(=NO)C1(C)C` [2-Oximino-3,3,4-trimethyltetrahydro-1,4-thiazin-5-one], for which the “Biological Activity, Aphid” value in assay [1] is on record as “C”. Further, in assay [2], the “Biological Activity, Mite” value was “C”. The “Biological Activity, Southern Armyworm” value in assay [3] is “C”. Moreover, in assay [4], the “Biological Activity, Mexican Bean Beetle” value is “C”. Moreover, in assay [5], the “Biological Activity, House Fly” value is “C”.

For the compound `CC1C(=NO)SCC(=O)N1C` (stereo not drawn) [2-Oximino-3,4-dimethyltetrahydro-1,4-thiazin-5-one], the “Biological Activity, Mite” value in assay [2] is “C”. Besides, the “Biological Activity, Southern Armyworm” value in assay [3] is given as “C”. In addition, the “Biological Activity, Mexican Bean Beetle” value in assay [4] is “C”. Moreover, the “Biological Activity, House Fly” value in assay [5] is listed as “C”.

In the case of `CCCCN1C(=O)CSC(=NO)C1C` (stereo not drawn) [2-Oximino-4-butyl-3-methyltetrahydro-1,4-thiazin-5-one], the “Biological Activity, Aphid” value in assay [1] was “C”. The “Biological Activity, Mite” value in assay [2] was “C”. For the same compound, the “Biological Activity, Southern Armyworm” value in assay [3] was “C”. In addition, the “Biological Activity, Mexican Bean Beetle” value in assay [4] is listed as “C”. In assay [5], the “Biological Activity, House Fly” value is reported as “C”.

Turning to `CCN1C(=O)CSC(=NO)C1C` (stereo not drawn) [2-Oximino-4-ethyl-3-methyltetrahydro-1,4-thiazin-5-one], the “Biological Activity, Aphid” value in assay [1] is “C”. Moreover, in assay [2], the “Biological Activity, Mite” value is recorded as “C”. Also, the “Biological Activity, Southern Armyworm” value in assay [3] was “C”. Besides, the “Biological Activity, Mexican Bean Beetle” value in assay [4] was “C”. In addition, the “Biological Activity, House Fly” value in assay [5] is reported as “C”.

In the case of `CC(C)CN1C(=O)CSC(=NO)C1C` (stereo not drawn) [2-Oximino-4-isobutyl-3-methyltetrahydro-1,4-thiazin-5-one], the “Biological Activity, Aphid” value in assay [1] was “C”. In addition, the “Biological Activity, Mite” value in assay [2] is on record as “C”. For the same compound, in assay [3], the “Biological Activity, Southern Armyworm” value is on record as “C”. Further, the “Biological Activity, Mexican Bean Beetle” value in assay [4] is recorded as “C”. In addition, the “Biological Activity, House Fly” value in assay [5] is “C”.

Turning to `CNC(=O)ON=C1SCC(=O)N(C)C1(C)C` [2-[O-(Methylcarbamoyl)oximino]-3,3,4-trimethyltetrahydro-1,4-thiazin-5-one], in assay [1], the “Biological Activity, Aphid” value was “B”. Moreover, the “Biological Activity, Mite” value in assay [2] is on record as “A”. Moreover, the “Biological Activity, Southern Armyworm” value in assay [3] is “B”. Further, the “Biological Activity, Mexican Bean Beetle” value in assay [4] is listed as “A”. Also, the “Biological Activity, House Fly” value in assay [5] was “A”.

Take `CNC(=O)ON=C1SCC(=O)NC1(C)C` [2-[O-(Methylcarbamoyl)oximino]-3,3-dimethyltetrahydro-1,4-thiazin-5-one]: the “Biological Activity, Aphid” value in assay [1] is reported as “A”. Besides, the “Biological Activity, Mite” value in assay [2] was “A”. Moreover, in assay [3], the “Biological Activity, Southern Armyworm” value was “A”. In assay [4], the “Biological Activity, Mexican Bean Beetle” value is on record as “A”. Moreover, the “Biological Activity, House Fly” value in assay [5] was “A”.

For the compound `CCCCN1C(=O)CSC(=NOC(=O)NC)C1C` (stereo not drawn) [2-[O-(Methylcarbamoyl)oximino]-4-butyl-3-methyltetrahydro-1,4-thiazin-5-one], the “Biological Activity, Aphid” value in assay [1] was “C”. In addition, the “Biological Activity, Mite” value in assay [2] was “C”. The “Biological Activity, Southern Armyworm” value in assay [3] is “C”. Further, the “Biological Activity, Mexican Bean Beetle” value in assay [4] was “B”. The “Biological Activity, House Fly” value in assay [5] is reported as “B”.

Regarding `CCN1C(=O)CSC(=NOC(=O)NC)C1C` (stereo not drawn) [2-[O-(Methylcarbamoyl)oximino]-4-ethyl-3-methyltetrahydro-1,4-thiazin-5-one], the “Biological Activity, Aphid” value in assay [1] is on record as “B”. Moreover, the “Biological Activity, Mite” value in assay [2] was “A”. Also, the “Biological Activity, Southern Armyworm” value in assay [3] was “B”. Further, in assay [4], the “Biological Activity, Mexican Bean Beetle” value is “B”. Besides, the “Biological Activity, House Fly” value in assay [5] is given as “A”.

In the case of `CNC(=O)ON=C1SCC(=O)N(CC(C)C)C1C` (stereo not drawn) [2-[O-(Methylcarbamoyl)oximino]-4-isobutyl-3-methyltetrahydro-1,4-thiazin-5-one], the “Biological Activity, Aphid” value in assay [1] is listed as “C”. Besides, the “Biological Activity, Mite” value in assay [2] was “C”. For the same compound, the “Biological Activity, Southern Armyworm” value in assay [3] was “C”. Also, the “Biological Activity, Mexican Bean Beetle” value in assay [4] is recorded as “C”. In assay [5], the “Biological Activity, House Fly” value is on record as “A”.

Regarding `CNC(=O)ON=C1SCC(=O)N(C(C)C)C1C` (stereo not drawn) [2-[O-(Methylcarbamoyl)oximino]-4-isopropyl-3-methyltetrahydro-1,4-thiazin-5-one], in assay [1], the “Biological Activity, Aphid” value is given as “C”. Besides, the “Biological Activity, Mite” value in assay [2] is reported as “B”. Besides, the “Biological Activity, Southern Armyworm” value in assay [3] is given as “C”. Further, the “Biological Activity, Mexican Bean Beetle” value in assay [4] is on record as “C”. Besides, the “Biological Activity, House Fly” value in assay [5] is on record as “A”.

For `CC(=O)N(C)C(=O)ON=C1SCC(=O)N(C)C1C` (stereo not drawn) [2-[O-(N-Acetyl-N-methylcarbamoyl)oximino]-3,4-dimethyltetrahydro-1,4-thiazin-5-one], in assay [1], the “Biological Activity, Aphid” value is recorded as “C”. Also, the “Biological Activity, Mite” value in assay [2] was “C”. The “Biological Activity, Southern Armyworm” value in assay [3] is “A”. For the same compound, in assay [4], the “Biological Activity, Mexican Bean Beetle” value is listed as “C”. Besides, the “Biological Activity, House Fly” value in assay [5] is listed as “C”.

Turning to `CN(SN1CCOCC1)C(=O)ON=C1SCC(=O)NC1(C)C` [2-[O-(N-Morpholinosulfenyl-N-methylcarbamoyl)oximino]-3,3-dimethyltetrahydro-1,4-thiazin-5-one], the “Biological Activity, Aphid” value in assay [1] was “A”. In assay [3], the “Biological Activity, Southern Armyworm” value is given as “A”. The “Biological Activity, Mexican Bean Beetle” value in assay [4] was “A”. In addition, the “Biological Activity, House Fly” value in assay [5] is “A”.
